In patent US20250368614A1, “COMPOUNDS AND METHODS FOR YAP/TEAD MODULATION AND INDICATIONS THEREFOR” (OPNA BIO SA, priority 2023, published 2025):

tested on: TEAD-dependent transcription (12XGTIIC TEAD response element luciferase reporter) in MSTO-211H cells; test: TEAD-dependent transcription cell-based luciferase reporter assay in MSTO-211H+12XGTIIC cells; settings: Homo sapiens; MSTO-211H+12XGTIIC reporter cells, 24 hours compound incubation, luminescence normalized to cell viability signal, geometric mean; read-out: MSTO-211H GMean IC50 (uM) Cell Assay Reporter Cell Variant: TEAD
Description: Determine Inhibitor Activity Against TEAD-Dependent Transcription in a Cell-Based Reporter Assay
The human mesothelioma cell line MSTO-211H was stably transfected with a pGL4.21 plasmid containing a synthetic promoter with 12 copies of the GTIIC TEAD response element that drives the expression of a luciferase reporter gene^1 using Lipofectamine transfection reagent (Thermo Fisher). Transfected cells were selected using puromycin and single cell clones expressing this construct (referred to as MSTO-211H+12XGTIIC) were generated by limiting dilution. MSTO-211H cells was characterized by genetic alterations in key components of the Hippo pathway^2, resulting in up-regulation of YAP/TEAD-mediated transcription. […] To evaluate TEAD inhibitors, the MSTO-211H+12XGTIIC cell line was seeded in a 96-well plate in 50 μL of culture media at 1×10^4 cells per well and incubated at 37° C. overnight. Serial dilutions of compounds (in total volume of 50 μL of culture media) were added to the cells and incubated at 37° C. for 24 hours. Each plate included cells treated with DMSO as high controls and cells treated with 20 μM of the reference compound K-975 (a known TEAD inhibitor^3) as low controls. Cell viability was assayed by the addition of 25 μL of CellTiter-Fluor reagent (Promega) followed by a 30-minute incubation at 37° C. and quantification of the fluorescence signal (Ex400/Em505). Subsequently, luciferase expression was assayed by the addition of 25 μL of ONE-Glo reagent (Promega) followed by a 10-minute incubation at room temperature and quantification of the luminescence signal. The luminescence signal was normalized to the fluorescence signal to correct for any loss in cell viability over the 24-hour compound incubation period. The percentage of inhibition of normalized luminescence signal, indicative of compound-mediated inhibition of TEAD-dependent transcription, at individual compound concentrations relative to high and low controls was calculated. The data were analyzed by using nonlinear regression to generate IC50 values for individual compounds.

Row | SMILES | IC50
1 | CS(=O)(=O)c1cc(C(=O)N2CCc3c(cccc3Nc3ccc(C(F)(F)F)cc3)C2)ccn1 [Compound O-0201, (2-(methylsulfonyl)pyridin-4-yl)(5-((4-(trifluoromethyl)phenyl)amino)-3,4-dihydroisoquinolin-2(1H)-yl)methanone] | 0.001 to 10 µM
2 | C=CC(=O)Nc1ccnc(C(=O)N2CCc3c(cccc3Nc3ccc(C(F)(F)F)cc3)C2)c1 [Compound O-0036, N-(2-(5-((4-(trifluoromethyl)phenyl)amino)-1,2,3,4-tetrahydroisoquinoline-2-carbonyl)pyridin-4-yl)acrylamide] | 0.001 to 10 µM
3 | O=C(Cc1c[nH]cn1)N1CCc2c(cccc2Nc2ccc(C(F)(F)F)cc2)C1 [Compound O-0053, 2-(1H-imidazol-4-yl)-1-(5-((4-(trifluoromethyl)phenyl)amino)-3,4-dihydroisoquinolin-2(1H)-yl)ethan-1-one] | 0.001 to 10 µM
4 | O=C(c1cccc2cc[nH]c12)N1CCc2c(cccc2Nc2ccc(C(F)(F)F)nc2)C1 [Compound O-0060, (1H-indol-7-yl)(5-((6-(trifluoromethyl)pyridin-3-yl)amino)-3,4-dihydroisoquinolin-2(1H)-yl)methanone] | 0.001 to 10 µM
5 | O=C(NCCC(=O)N1CCc2c(cccc2Nc2ccc(C(F)(F)F)c(F)c2)C1)NC1CC1 [Compound O-0188, 1-cyclopropyl-3-(3-(5-((3-fluoro-4-(trifluoromethyl)phenyl)amino)-3,4-dihydroisoquinolin-2(1H)-yl)-3-oxopropyl)urea] | 0.001 to 10 µM
6 | Nc1cncc(C(=O)N2CCc3c(cccc3Nc3ccc(C(F)(F)F)cc3)C2)c1 [Compound O-0031, (5-aminopyridin-3-yl)(5-((4-(trifluoromethyl)phenyl)amino)-3,4-dihydroisoquinolin-2(1H)-yl)methanone] | 0.001 to 10 µM
7 | O=C(c1ccnc(Cl)n1)N1CCc2c(cccc2Nc2ccc(C(F)(F)F)cc2)C1 [Compound O-0041, (2-chloropyrimidin-4-yl)(5-((4-(trifluoromethyl)phenyl)amino)-3,4-dihydroisoquinolin-2(1H)-yl)methanone] | 0.001 to 10 µM
8 | O=C(NCCC(=O)N1CCc2c(cccc2Nc2ccc(C(F)(F)F)c(F)c2)C1)Nc1ccccn1 [Compound O-0185, 1-(3-(5-((3-fluoro-4-(trifluoromethyl)phenyl)amino)-3,4-dihydroisoquinolin-2(1H)-yl)-3-oxopropyl)-3-(pyridin-2-yl)urea] | 0.001 to 10 µM
9 | Nc1cccc(CNC(=O)N2CCc3c(cccc3Nc3ccc(C(F)(F)F)cc3)C2)n1 [Compound O-0191, N-((6-aminopyridin-2-yl)methyl)-5-((4-(trifluoromethyl)phenyl)amino)-3,4-dihydroisoquinoline-2(1H)-carboxamide] | 0.001 to 10 µM
10 | NC(=O)NCCC(=O)N1CCc2c(cccc2Nc2ccc(C(F)(F)F)nc2)C1 [Compound O-0189, 1-(3-oxo-3-(5-((6-(trifluoromethyl)pyridin-3-yl)amino)-3,4-dihydroisoquinolin-2(1H)-yl)propyl)urea] | 0.001 to 10 µM
11 | O=C(CCS(=O)(=O)C(F)(F)F)N1CCc2cc(Nc3ccc(C(F)(F)F)cc3)ccc2C1 [Compound O-0205, 1-(6-((4-(trifluoromethyl)phenyl)amino)-3,4-dihydroisoquinolin-2(1H)-yl)-3-((trifluoromethyl)sulfonyl)propan-1-one] | 0.001 to 10 µM
12 | O=C(NCCC(=O)N1CCc2c(cccc2Nc2ccc(C(F)(F)F)cn2)C1)NC1CC1 [Compound O-0187, 1-cyclopropyl-3-(3-oxo-3-(5-((5-(trifluoromethyl)pyridin-2-yl)amino)-3,4-dihydroisoquinolin-2(1H)-yl)propyl)urea] | 0.001 to 10 µM
13 | C=CC(=O)Nc1cccc(C(=O)N2CCc3c(cccc3N(C)c3ccc(C(F)(F)F)cc3)C2)n1 [Compound O-0018, N-(6-(5-(methyl(4-(trifluoromethyl)phenyl)amino)-1,2,3,4-tetrahydroisoquinoline-2-carbonyl)pyridin-2-yl)acrylamide] | 0.001 to 10 µM
14 | O=C(CCS(=O)(=O)C(F)(F)F)N1CCc2c(cccc2Nc2ccc(C(F)(F)F)cc2)C1 [Compound O-0010, 1-(5-((4-(trifluoromethyl)phenyl)amino)-3,4-dihydroisoquinolin-2(1H)-yl)-3-((trifluoromethyl)sulfonyl)propan-1-one] | 0.001 to 10 µM
15 | O=C(c1cccc2[nH]ccc12)N1CCc2c(cccc2Nc2ccc(C(F)(F)F)cc2)C1 [Compound O-0027, (1H-indol-4-yl)(5-((4-(trifluoromethyl)phenyl)amino)-3,4-dihydroisoquinolin-2(1H)-yl)methanone] | 0.001 to 10 µM
16 | O=C(Nc1ccccn1)N1CCC(C(=O)N2CCc3c(cccc3Nc3ccc(C(F)(F)F)cc3F)C2)C1 (stereo not shown) [Compound O-0095, 3-(5-((2-fluoro-4-(trifluoromethyl)phenyl)amino)-1,2,3,4-tetrahydroisoquinoline-2-carbonyl)-N-(pyridin-2-yl)pyrrolidine-1-carboxamide] | 0.001 to 10 µM
17 | O=C(Cc1cnco1)N1CCc2c(cccc2Nc2ccc(C(F)(F)F)cc2)C1 [Compound O-0004, 2-(oxazol-5-yl)-1-(5-((4-(trifluoromethyl)phenyl)amino)-3,4-dihydroisoquinolin-2(1H)-yl)ethan-1-one] | 0.001 to 10 µM
18 | CN(c1ccc(C(F)(F)F)cc1)c1cccc2c1CCN(C(=O)c1cccc(N)c1)C2 [Compound O-0013, (3-aminophenyl)(5-(methyl(4-(trifluoromethyl)phenyl)amino)-3,4-dihydroisoquinolin-2(1H)-yl)methanone] | 0.001 to 10 µM
19 | O=C(NCc1ccccn1)N1CCc2c(cccc2Nc2ccc(C(F)(F)F)cc2)C1 [Compound O-0194, N-(pyridin-2-ylmethyl)-5-((4-(trifluoromethyl)phenyl)amino)-3,4-dihydroisoquinoline-2(1H)-carboxamide] | 0.001 to 10 µM
20 | NC(=O)NCCC(=O)N1CCc2c(cccc2Nc2ccc(C(F)(F)F)cc2F)C1 [Compound O-0192, 1-(3-(5-((2-fluoro-4-(trifluoromethyl)phenyl)amino)-3,4-dihydroisoquinolin-2(1H)-yl)-3-oxopropyl)urea] | 0.001 to 10 µM
21 | NC(=O)NCCC(=O)N1CCc2c(cccc2Nc2ccc(C(F)(F)F)cc2)C1 [Compound O-0056, 1-(3-oxo-3-(5-((4-(trifluoromethyl)phenyl)amino)-3,4-dihydroisoquinolin-2(1H)-yl)propyl)urea] | 0.001 to 10 µM
22 | CN(c1ccc(C(F)(F)F)cc1)c1cccc2c1CCN(C(=O)CCS(=O)(=O)C(F)(F)F)C2 [Compound O-0016, 1-(5-(methyl(4-(trifluoromethyl)phenyl)amino)-3,4-dihydroisoquinolin-2(1H)-yl)-3-((trifluoromethyl)sulfonyl)propan-1-one] | 0.001 to 10 µM
